These results are taken from patent US5700640A, “Inducers of gamma globin gene expression and screening assays therefor” (priority 1994, dated 1997).

Data set [1] has as its system BA-induced reporter gene expression in gamma3'PE K562 cells. In words: effect of extracellular KCl on BA-induced reporter gene activity. In kind it is cell-based, human. How it is done: Valinomycin is a potassium ionophore known to cause depolarization of the K^+ gradient existing across cell membranes. To determine whether the effect of valinomycin indicated a requirement for a K^+ gradient for uptake of BA, gamma3'PE reporter cells were incubated in the presence of culture medium supplemented with increasing concentrations of KCl. Thus, as opposed to valinomycin, this treatment extinguishes the existing K^+ gradient from the external side of the membrane without affecting internal K^+ concentrations. Cells cultured in increasing concentrations on KCl were treated for 5 hours with BA and then harvested and assayed for luciferase activity. The results are shown in FIG. 10, wherein the bars indicate the level of reporter gene activity after induction in the presence of the indicated concentration of KCl and the asterisks indicate basal (uninduced) levels of reporter gene activity in replicate cultures.
For orientation: A reporter such as luciferase makes a cellular process visible.

Data set [2] relates to BA-mediated induction of luciferase activity in gamma3'PE K562 cells. In words: effect of transport inhibitors on BA-induced reporter gene activity in gamma3'PE K562 cells. Format: cell-based, human. On the procedure: To characterize uptake of butyric acid by erythroid cells, K562 cells stably transfected with gamma3'PE were treated with BA in the presence of various transport inhibitors. […] Cells were maintained in the continuous presence of both BA and the inhibitor for 24 hours and then luciferase activity in the cells was measured.

Another data set relates to K562 cells. Nature of the data set: trypan blue exclusion. In kind it is cell-based, human.
Another data set relates to BA uptake by colonocytes. The following applies: Mascolo et al. 1991; cited from earlier work.
In data set [3] the test system is 14C BA transport into K562 cells. Nature of the data set: 14C butyric acid incorporation into gamma3'PE-transfected K562 cells. Format: cell-based, human. The following applies: valinomycin 10 μM, 1 hour preincubation; 50 μM 14C BA. How it is done:
To directly examine whether transport of BA into erythroid cells required an intact K+ gradient, the incorporation of ^14 C BA into gamma3'PE-transfected K562 cells was assayed in the presence and absence of 10 μM valinomycin. Cells were incubated with 10 μM valinomycin for 1 hour prior to addition of ^14 C butyric acid (obtained commercially from Dupont/New England Nuclear) to a final concentration of 50 μM. At various times after addition of ^14 C BA, cells were harvested by vacuum filtration through a GF/C filter (Whatman) and washed with a total of 5 ml of RPMI culture media. Radioactivity associated with the cells was quantified directly by liquid scintillation counting of the filter. The results, shown in FIG. 11, indicate that the rate of ^14 C BA incorporation into the cells is inhibited nearly three fold by the addition of valinomycin. Although cells treated with valinomycin did accumulate some ^14 C BA, it is not clear whether this was actually internalized or bound to the surface of the cell. Neutralization of the potassium gradient could be expected to selectively prevent internalization but not binding of radioligand. […] Accordingly, the results described herein are consistent with an erythroid-specific transport mechanism for uptake of BA that is dependent upon an intact K^+ gradient across the cell membrane.

The test system of data set [4] is gamma globin reporter gene activity in gamma3'PE K562 cells (protein kinase C inhibition). In words: effect of the pKC inhibitor hypericin on basal and BA-induced reporter gene activity. As to conditions: 10 mM hypericin, 1 hour before 5 mM BA for 24 hours. Format: cell-based, human. On the procedure: Consistent with the results using the pKC activator (-) indolactam V are the results of experiments utilizing the pKC inhibitor hypericin. In these experiments, cells were incubated in the presence or absence of hypericin (10 mM; LC Laboratories) for one hour prior to treatment with 5 mMBA for 24 hours, followed by harvesting of the cells and assaying of luciferase activity.

Data set [5] relates to gamma globin-regulated luciferase mRNA. In words: cells. Format: cell-based, human. On the procedure: Total RNA was prepared by the method of McDonald as described in Sambrook et al., (1989) Molecular Cloning: A Laboratory Manual, 2nd Edition, Cold Spring Harbor Laboratory Press. 10 μg total cellular RNA was electrophoresed through agarose gels containing 3.3% formaldehyde. The electrophoresed RNA was then transferred to nitrocellulose filters by standard methods. Each sample was hybridized to specific probes for gamma globin mRNA, mRNA encoding the erythroid specific transcription factor GATA-1 and 28S ribosomal RNA (which was used for standardization). The gamma globin and GATA-1 probes were cDNA probes, which were labeled with ^32 p by random priming reactions (Promega Biotech Inc.). The 28S ribosomal RNA probe was an oligonucleotide having the sequence 5' […] 3' (SEQ ID NO: 3), which was labeled by 5' end labeling using T4 polynucleotide kinase (New England Biolabs). Nucleotide probes were hybridized to the RNA nitrocellulose filters according to standard techniques. After hybridization, radioactive signals on the nitrocellulose filters were directly quantified using a BioRad GS-250 Molecular Imager. mRNA hybridization intensities were normalized to the amount of 28S ribosomal RNA present for each sample. The results are summarized below in Table 1:
To determine if BA exerts its inductive effects by acting directly on pre-existing proteins in the cells, the effect of the protein synthesis inhibitor cycloheximide (CHX) on BA-induced expression of RNA was analyzed. In these experiments, gamma3'PE cells were incubated with 150 μg/ml CHX for 2 hr prior to addition of BA (5 mM). Control cells were incubated with either CHX or BA alone or were mock incubated. Cells were harvested 5 hr later for preparation of total RNA. RNA samples were electrophoresed, transferred to nitrocellulose and hybridized to a ^32 P-labeled luciferase cDNA probe as described in Example 4. The radioactive signals on the filter were quantitated using a BioRad GS-250 Molecular Imager and mRNA levels were normalized to values obtained for mock treated samples. […]

The next data set concerns GATA-1 mRNA. In words: GATA-1 mRNA level (Northern) with BA and/or cycloheximide in gamma3'PE cells. Format: cell-based, human. On the procedure: To determine if BA exerts its inductive effects by acting directly on pre-existing proteins in the cells, the effect of the protein synthesis inhibitor cycloheximide (CHX) on BA-induced expression of RNA was analyzed. In these experiments, gamma3'PE cells were incubated with 150 μg/ml CHX for 2 hr prior to addition of BA (5 mM). Control cells were incubated with either CHX or BA alone or were mock incubated. Cells were harvested 5 hr later for preparation of total RNA. RNA samples were electrophoresed, transferred to nitrocellulose and hybridized to a ^32 P-labeled luciferase cDNA probe as described in Example 4. The radioactive signals on the filter were quantitated using a BioRad GS-250 Molecular Imager and mRNA levels were normalized to values obtained for mock treated samples. The results are presented graphically in FIG. 12, Panel A. BA treatment alone increased gamma globin-regulated luciferase mRNA by approximately 6 fold.
The results, normalized to mock treated samples, are depicted graphically in FIG. 12, Panel B. In contrast to luciferase mRNA which was induced by BA treatment, the level of GATA-1 RNA decreases about 3 fold in response to BA treatment.

For `[Cl-].[K+]` [KCl], in data set [1] (K+ above approximately 200 mM), the “basal level globin expression at higher K+ concentrations” value was “a reduction in basal level globin expression was observed at higher K^+ concentrations”. In addition, the “external K+ concentration inhibiting BA-induced reporter gene expression” value in data set [1] (KCl in medium, BA 5 hours) is on record as “approximately 200 mM”. The “effect on basal level gene expression” value in data set [1] (approximately 200 mM KCl) is reported as “basal level gene expression was not affected”.
Take `CC(C)[C@@H]1NC(=O)[C@H](C)OC(=O)[C@@H](C(C)C)NC(=O)[C@@H](C(C)C)OC(=O)[C@H](C(C)C)NC(=O)[C@H](C)OC(=O)[C@@H](C(C)C)NC(=O)[C@@H](C(C)C)OC(=O)[C@H](C(C)C)NC(=O)[C@H](C)OC(=O)[C@@H](C(C)C)NC(=O)[C@@H](C(C)C)OC1=O` [valinomycin]: in data set [2] (valinomycin 10 μM, 24 hours), the “reduction in BA-mediated globin gene induction” value is recorded as 4 fold. In data set [2] (valinomycin, no BA), the “effect on basal level globin gene expression” value was “did not affect basal level globin gene expression”. In the data set on K562 cells, the non-specific toxic effect result is on record as “did not result from a non-specific toxic effect”. In the data set on BA uptake by colonocytes, the “effect on BA uptake by colonocytes” value is “not inhibited by valinomycin”. Further, in data set [3], the “inhibition of rate of 14C BA incorporation” value is given as “three”.
With `Cc1cc(O)c2c(=O)c3c(O)cc(O)c4c5c(O)cc(O)c6c(=O)c7c(O)cc(C)c8c1c2c(c34)c(c78)c65` [hypericin], the “effect on basal level and BA induced globin gene expression” value in data set [4] was “significant reduction in both basal level and BA induced globin gene expression”.
Consider `C[C@@H]1C[C@@H]([C@H](O)CC2CC(=O)NC(=O)C2)C(=O)[C@@H](C)C1` [cycloheximide], for which, in data set [5] (150 μg/ml CHX alone), the “effect of cycloheximide alone on luciferase mRNA” value is “significant increase in gamma globin-regulated luciferase mRNA, albeit to a lower level than that observed with BA”. In data set [5] (CHX 150 μg/ml 2 hr before BA 5 mM), the “effect of cycloheximide on BA-mediated induction of luciferase mRNA” value was “failed to block BA-mediated induction of luciferase mRNA”. For the same molecule, the “effect of cycloheximide alone on GATA-1 mRNA level” value with GATA-1 mRNA (150 μg/ml CHX alone) was “insensitive to cycloheximide treatment alone”. Besides, the “effect of cycloheximide on BA induced decrease in GATA-1 mRNA level” value in the data set on GATA-1 mRNA (CHX 150 μg/ml plus BA 5 mM) is “sensitive to cycloheximide treatment”.
